Key:
[1] = biological target: T1, Sodium-dependent serotonin transporter (Homo sapiens, UniProt P31645); conditions: HEK293, at 1 µM
Target sequence in this assay (P31645 whole entry, looked up): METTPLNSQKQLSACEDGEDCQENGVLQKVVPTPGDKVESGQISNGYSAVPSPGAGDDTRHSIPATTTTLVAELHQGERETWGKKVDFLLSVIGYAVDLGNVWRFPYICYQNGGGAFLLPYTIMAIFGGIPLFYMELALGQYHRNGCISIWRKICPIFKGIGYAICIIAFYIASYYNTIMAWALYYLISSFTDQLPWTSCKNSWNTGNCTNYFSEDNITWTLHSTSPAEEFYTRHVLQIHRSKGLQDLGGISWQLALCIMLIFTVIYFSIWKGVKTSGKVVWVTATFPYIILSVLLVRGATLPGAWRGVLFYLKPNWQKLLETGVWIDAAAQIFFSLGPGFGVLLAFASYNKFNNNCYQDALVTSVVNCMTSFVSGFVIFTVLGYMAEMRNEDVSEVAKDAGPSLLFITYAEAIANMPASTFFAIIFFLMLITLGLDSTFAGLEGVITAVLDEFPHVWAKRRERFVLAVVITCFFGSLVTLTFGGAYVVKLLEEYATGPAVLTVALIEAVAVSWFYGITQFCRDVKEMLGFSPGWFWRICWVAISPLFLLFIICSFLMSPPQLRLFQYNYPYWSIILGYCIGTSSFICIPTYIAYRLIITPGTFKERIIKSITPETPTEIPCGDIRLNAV

[2] = biological target: T1, Sodium-dependent serotonin transporter; conditions: HEK293, at 10 µM
Target sequence in this assay (P31645 whole entry, looked up): as above

[3] = biological target: T1, Sodium-dependent serotonin transporter; conditions: HEK293, at 0.1 µM
Target sequence in this assay (P31645 whole entry, looked up): as above

[4] = biological target: T1, Sodium-dependent serotonin transporter; assay: Ratio of venlafaxine IC50 to compound IC50 for serotonin reuptake at human SERT expressed in HEK293 cells at 0.1 uM after 15 mins by fluorescence neurotransmitter transporter assay; type: cell-based
Target sequence in this assay (P31645 whole entry, looked up): as above

[5] = biological target: T1, Sodium-dependent serotonin transporter; assay: Ratio of duloxetine IC50 to compound IC50 for serotonin reuptake at human SERT expressed in HEK293 cells at 0.1 uM after 15 mins by fluorescence neurotransmitter transporter assay; type: cell-based
Target sequence in this assay (P31645 whole entry, looked up): as above

[6] = biological target: T2, Sodium-dependent noradrenaline transporter (Homo sapiens, UniProt P23975); assay: Ratio of venlafaxine IC50 to compound IC50 for norepinephrine reuptake at human NET expressed in HEK293 cells at 0.1 uM after 15 mins by fluorescence neurotransmitter transporter assay; type: cell-based
T2 sequence (P23975 whole entry): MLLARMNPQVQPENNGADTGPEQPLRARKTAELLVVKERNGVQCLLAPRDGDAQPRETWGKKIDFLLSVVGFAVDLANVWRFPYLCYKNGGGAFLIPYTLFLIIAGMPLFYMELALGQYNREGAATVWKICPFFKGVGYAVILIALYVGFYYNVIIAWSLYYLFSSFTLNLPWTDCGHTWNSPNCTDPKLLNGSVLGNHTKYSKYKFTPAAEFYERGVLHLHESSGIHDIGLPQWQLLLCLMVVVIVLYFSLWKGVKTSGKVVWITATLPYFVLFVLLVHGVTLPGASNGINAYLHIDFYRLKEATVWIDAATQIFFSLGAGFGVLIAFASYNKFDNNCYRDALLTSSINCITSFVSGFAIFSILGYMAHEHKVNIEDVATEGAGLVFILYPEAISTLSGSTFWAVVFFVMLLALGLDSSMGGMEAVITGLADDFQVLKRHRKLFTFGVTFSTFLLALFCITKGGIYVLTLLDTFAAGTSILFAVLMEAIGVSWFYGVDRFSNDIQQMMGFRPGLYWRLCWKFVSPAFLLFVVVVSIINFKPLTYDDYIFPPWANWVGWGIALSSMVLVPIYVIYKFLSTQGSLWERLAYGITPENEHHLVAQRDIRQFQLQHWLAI

[7] = biological target: Sodium-dependent dopamine transporter (Homo sapiens, UniProt Q01959)
Sequence of Sodium-dependent dopamine transporter (Q01959 whole entry): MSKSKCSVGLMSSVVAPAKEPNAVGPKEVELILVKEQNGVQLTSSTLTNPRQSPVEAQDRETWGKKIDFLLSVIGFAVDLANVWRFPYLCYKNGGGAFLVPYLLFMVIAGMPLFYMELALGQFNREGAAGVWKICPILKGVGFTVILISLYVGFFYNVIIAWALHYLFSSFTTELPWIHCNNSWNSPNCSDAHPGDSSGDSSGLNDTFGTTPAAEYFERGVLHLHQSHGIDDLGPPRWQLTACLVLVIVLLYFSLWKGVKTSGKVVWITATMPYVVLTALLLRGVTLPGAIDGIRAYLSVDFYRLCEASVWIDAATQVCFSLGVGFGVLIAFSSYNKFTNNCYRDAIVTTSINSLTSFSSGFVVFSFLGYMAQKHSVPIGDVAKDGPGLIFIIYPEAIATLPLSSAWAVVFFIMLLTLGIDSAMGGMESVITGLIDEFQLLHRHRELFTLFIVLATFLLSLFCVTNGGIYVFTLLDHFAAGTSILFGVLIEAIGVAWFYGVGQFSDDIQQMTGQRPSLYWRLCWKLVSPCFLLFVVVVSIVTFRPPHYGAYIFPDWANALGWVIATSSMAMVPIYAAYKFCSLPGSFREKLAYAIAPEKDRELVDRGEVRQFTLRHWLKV

[8] = biological target: T2, Sodium-dependent noradrenaline transporter
[9] = biological target: T2, Sodium-dependent noradrenaline transporter; assay: Ratio of duloxetine IC50 to compound IC50 for norepinephrine reuptake at human NET expressed in HEK293 cells at 0.1 uM after 15 mins by fluorescence neurotransmitter transporter assay; type: cell-based
[10] = biological target: T1, Sodium-dependent serotonin transporter; type: cell-based, HEK293
Target sequence in this assay (P31645 whole entry): as the sequence (P31645 whole entry, looked up) above

[11] = Stability in human liver microsomes assessed as compound remaining at 1 uM after 30 mins by LC/MS analysis; type: ADME; conditions: read-out: Stability
[12] = biological target: T3, CYP1A2 (Homo sapiens, UniProt P05177); assay: in vitro; conditions: recombinant CYP1A2
T3 sequence (P05177 whole entry): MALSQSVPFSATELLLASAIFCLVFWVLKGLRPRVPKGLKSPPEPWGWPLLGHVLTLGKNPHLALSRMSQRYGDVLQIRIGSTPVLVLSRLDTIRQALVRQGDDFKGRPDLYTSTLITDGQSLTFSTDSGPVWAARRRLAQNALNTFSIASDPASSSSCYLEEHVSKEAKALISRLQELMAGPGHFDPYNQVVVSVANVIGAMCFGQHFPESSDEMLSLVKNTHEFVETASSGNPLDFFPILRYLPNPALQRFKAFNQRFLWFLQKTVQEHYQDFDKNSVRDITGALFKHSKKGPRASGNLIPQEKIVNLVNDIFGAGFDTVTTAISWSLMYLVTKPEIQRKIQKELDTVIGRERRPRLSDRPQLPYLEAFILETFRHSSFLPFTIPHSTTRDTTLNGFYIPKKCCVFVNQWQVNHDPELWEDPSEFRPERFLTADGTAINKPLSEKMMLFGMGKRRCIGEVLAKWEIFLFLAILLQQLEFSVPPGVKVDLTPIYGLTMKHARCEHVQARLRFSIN

[13] = biological target: CYP2C9 (Homo sapiens, UniProt P11712); assay: in vitro; conditions: recombinant CYP2C9
Sequence of CYP2C9 (P11712 whole entry): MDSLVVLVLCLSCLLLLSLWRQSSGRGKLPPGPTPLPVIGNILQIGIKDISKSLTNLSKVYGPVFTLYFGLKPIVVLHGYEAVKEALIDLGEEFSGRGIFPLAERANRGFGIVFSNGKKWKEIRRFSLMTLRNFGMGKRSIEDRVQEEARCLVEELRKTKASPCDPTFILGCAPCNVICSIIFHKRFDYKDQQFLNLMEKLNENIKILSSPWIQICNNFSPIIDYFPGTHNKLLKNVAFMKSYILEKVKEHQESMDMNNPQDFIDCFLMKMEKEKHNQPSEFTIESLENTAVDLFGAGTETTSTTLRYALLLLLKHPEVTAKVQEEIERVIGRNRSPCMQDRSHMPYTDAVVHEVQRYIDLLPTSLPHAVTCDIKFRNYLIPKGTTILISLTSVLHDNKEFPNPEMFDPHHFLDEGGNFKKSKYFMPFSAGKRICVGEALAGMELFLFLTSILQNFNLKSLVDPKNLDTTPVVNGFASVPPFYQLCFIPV

[14] = biological target: CYP2C19 (Homo sapiens, UniProt P33261); assay: in vitro; conditions: recombinant CYP2C19
Sequence of CYP2C19 (P33261 whole entry): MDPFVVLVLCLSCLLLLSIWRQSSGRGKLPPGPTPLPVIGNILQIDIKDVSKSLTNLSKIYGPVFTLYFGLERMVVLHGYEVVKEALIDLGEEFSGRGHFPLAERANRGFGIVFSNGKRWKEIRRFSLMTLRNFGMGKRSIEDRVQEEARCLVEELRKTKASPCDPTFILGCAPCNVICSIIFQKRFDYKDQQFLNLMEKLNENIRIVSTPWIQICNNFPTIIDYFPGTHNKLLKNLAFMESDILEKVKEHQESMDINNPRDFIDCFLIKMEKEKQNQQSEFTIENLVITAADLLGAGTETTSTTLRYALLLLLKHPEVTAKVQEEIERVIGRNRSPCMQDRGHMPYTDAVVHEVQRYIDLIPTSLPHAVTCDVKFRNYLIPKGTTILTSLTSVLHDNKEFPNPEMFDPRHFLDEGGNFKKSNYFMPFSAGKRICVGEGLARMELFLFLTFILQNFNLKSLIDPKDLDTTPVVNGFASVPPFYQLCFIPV

[15] = biological target: CYP3A4 (Homo sapiens, UniProt P08684); assay: in vitro; conditions: recombinant CYP3A4
Sequence of CYP3A4 (P08684 whole entry): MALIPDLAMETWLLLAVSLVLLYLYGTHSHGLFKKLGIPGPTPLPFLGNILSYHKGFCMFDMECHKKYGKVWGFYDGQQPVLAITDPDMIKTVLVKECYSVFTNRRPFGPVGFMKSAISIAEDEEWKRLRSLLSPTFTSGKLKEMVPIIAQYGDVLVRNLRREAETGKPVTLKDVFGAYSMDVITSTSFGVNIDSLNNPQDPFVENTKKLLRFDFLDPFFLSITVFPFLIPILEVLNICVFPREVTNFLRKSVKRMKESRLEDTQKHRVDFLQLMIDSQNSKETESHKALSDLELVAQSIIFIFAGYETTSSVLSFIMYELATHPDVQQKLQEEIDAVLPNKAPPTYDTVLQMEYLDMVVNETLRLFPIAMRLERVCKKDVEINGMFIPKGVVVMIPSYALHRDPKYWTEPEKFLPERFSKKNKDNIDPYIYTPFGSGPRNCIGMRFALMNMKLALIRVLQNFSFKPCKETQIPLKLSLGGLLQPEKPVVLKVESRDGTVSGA

[16] = biological target: CYP2D6 (Homo sapiens, UniProt P10635); assay: in vitro; conditions: recombinant CYP2D6
Sequence of CYP2D6 (P10635 whole entry): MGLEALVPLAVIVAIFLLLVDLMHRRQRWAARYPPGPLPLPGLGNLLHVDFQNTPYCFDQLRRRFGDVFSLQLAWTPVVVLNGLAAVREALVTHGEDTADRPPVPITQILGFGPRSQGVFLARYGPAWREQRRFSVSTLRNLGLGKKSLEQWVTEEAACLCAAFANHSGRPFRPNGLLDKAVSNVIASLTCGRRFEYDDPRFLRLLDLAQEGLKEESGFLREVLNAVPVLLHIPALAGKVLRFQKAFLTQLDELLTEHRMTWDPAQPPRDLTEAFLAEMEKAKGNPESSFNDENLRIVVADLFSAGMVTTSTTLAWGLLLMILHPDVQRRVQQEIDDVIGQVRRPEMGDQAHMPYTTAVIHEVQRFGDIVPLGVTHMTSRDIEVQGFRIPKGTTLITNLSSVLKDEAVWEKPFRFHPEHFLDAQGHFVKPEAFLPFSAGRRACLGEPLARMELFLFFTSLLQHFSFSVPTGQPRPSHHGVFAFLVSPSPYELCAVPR

Row | Structure (SMILES) | inhibition [1] | inhibition [2] | inhibition [3] | also measured
1 | FC(F)(F)Oc1ccccc1OC(CC1CNC1)c1ccc(Cl)c(Cl)c1 (configuration not stated) | 93% | 100% | 16% | –
2 | FC(F)(F)Oc1ccc(OC(CC2CNC2)c2ccc(Cl)c(Cl)c2)cc1 (configuration not stated) | 98% | 100% | 16% | –
3 | Fc1ccc(C(CC2CNC2)Oc2ccc(OC(F)(F)F)cc2)cc1F (configuration not stated) | – | – | 83% | –
4 | Fc1ccc(OC(CC2CNC2)c2ccc(Cl)c(Cl)c2)cc1 (configuration not stated) | 100% | 100% | 64% | Ratio IC50 [4]: > 7; Ratio IC50 [5]: > 7; Ratio IC50 [6]: > 7; IC50 [7]: 129 nM; IC50 [8]: 33.7 nM; Ratio IC50 [9]: > 7; IC50 [10]: 71.9 nM
5 | Cc1cccc(OC(CC2CNC2)c2ccc(Cl)c(Cl)c2)c1 (configuration not stated) | 100% | 100% | 21% | remaining at 0.5 h, 1 µM [11]: 62%
6 | Clc1cccc(OC(CC2CNC2)c2ccc(Cl)c(Cl)c2)c1 (configuration not stated) | 100% | 100% | 35% | –
7 | O=c1cc(-c2ccccc2)oc2c1ccc1ccccc12 [ALPHA-NAPHTHOFLAVONE] | – | – | – | inhibition at 10 µM [12]: 5.4%
8 | Clc1ccccc1OC(CC1CNC1)c1ccc2ccccc2c1 (configuration not stated) | – | – | 25% | –
9 | Nc1ccc(S(=O)(=O)Nc2ccnn2-c2ccccc2)cc1 [SULFAPHENAZOLE] | – | – | – | inhibition at 10 µM [13]: 11.3%
10 | Clc1ccc(C(CC2CNC2)Oc2ccccc2Cl)cc1Cl (configuration not stated) | 100% | 100% | 40% | –
11 | Clc1ccc(OC(CC2CNC2)c2ccc(Cl)c(Cl)c2)cc1Cl (configuration not stated) | 88% | 100% | 21% | –
12 | c1ccc(OC(CC2CNC2)c2ccc3ccccc3c2)cc1 (configuration not stated) | – | – | 56% | –
13 | Fc1cc(C(CC2CNC2)Oc2ccc(Cl)cc2)ccc1Cl (configuration not stated) | 100% | 100% | 65% | –
14 | Fc1ccccc1OC(CC1CNC1)c1ccc(Cl)c(Cl)c1 (configuration not stated) | 100% | 100% | 59% | Ratio IC50 [4]: > 7; Ratio IC50 [5]: > 7; Ratio IC50 [6]: > 7; IC50 [7]: 53.6 nM; IC50 [8]: 33.5 nM; Ratio IC50 [9]: > 7; IC50 [10]: 73.8 nM
15 | Fc1ccccc1OC(CC1CNC1)c1ccccc1 (configuration not stated) | – | – | 64% | –
16 | FC(F)(F)Oc1cccc(OC(CC2CNC2)c2ccc(Cl)c(Cl)c2)c1 (configuration not stated) | 77% | 100% | 9% | –
17 | c1ccc(OC(CC2CNC2)c2ccccc2)cc1 (configuration not stated) | – | – | 66% | –
18 | Cc1ccc(OC(CC2CNC2)c2ccc(Cl)c(Cl)c2)cc1 (configuration not stated) | 100% | 100% | 59% | –
19 | CNCCC(Oc1ccccc1OC)c1ccccc1 (configuration not stated) | 43% | 85% | – | –
20 | COCC(=O)O[C@]1(CCN(C)CCCc2nc3ccccc3[nH]2)CCc2cc(F)ccc2[C@@H]1C(C)C [MIBEFRADIL] | – | – | – | remaining at 0.5 h, 1 µM [11]: 43%
21 | Clc1ccccc1OC(CC1CNC1)c1ccccc1 (configuration not stated) | – | – | 100% | –
22 | Clc1ccc(COC(Cn2ccnc2)c2ccc(Cl)cc2Cl)c(Cl)c1 (configuration not stated) [MICONAZOLE] | – | – | – | inhibition at 10 µM [14]: 8.6%
23 | Fc1cccc(OC(CC2CNC2)c2ccc(Cl)c(Cl)c2)c1 (configuration not stated) | 100% | 100% | 26% | –
24 | Clc1ccc(C(CC2CNC2)Oc2ccccc2)cc1Cl (configuration not stated) | 100% | 100% | 50% | Ratio IC50 [4]: > 7; Ratio IC50 [5]: > 7; Ratio IC50 [6]: > 7; IC50 [7]: 52.1 nM; IC50 [8]: 37.2 nM; Ratio IC50 [9]: > 7; remaining at 0.5 h, 1 µM [11]: 67%; IC50 [10]: 83.4 nM
25 | Fc1cc(C(CC2CNC2)Oc2cccc(OC(F)(F)F)c2)ccc1Cl (configuration not stated) | 97% | 100% | 25% | –
26 | Clc1ccc(OC(CC2CNC2)c2ccc(Cl)c(Cl)c2)cc1 (configuration not stated) | 100% | 100% | 41% | –
27 | Clc1ccc([C@]23CNC[C@H]2C3)cc1Cl [AMITIFADINE] | – | – | – | remaining at 0.5 h, 1 µM [11]: 67%
28 | Cc1ccc(OC(CC2CNC2)c2ccc(Cl)c(F)c2)cc1 (configuration not stated) | 100% | 100% | 97% | inhibition at 10 µM [13]: 19%; inhibition at 10 µM [14]: 7.6%; inhibition at 10 µM [15]: 13%; inhibition at 10 µM [16]: 10%; IC50 [7]: 110 nM; IC50 [8]: 33.1 nM; remaining at 0.5 h, 1 µM [11]: 59%; inhibition at 10 µM [12]: 44%; IC50 [10]: 38.5 nM

Second part, led by results:

Row | inhibition [1] | inhibition [2] | inhibition [3] | Structure (SMILES) | also measured
29 | – | – | 48% | Cc1ccccc1OC(CC1CNC1)c1ccc2ccccc2c1 (configuration not stated) | –
30 | 100% | 100% | 25% | Cc1ccccc1OC(CC1CNC1)c1ccc(Cl)c(Cl)c1 (configuration not stated) | remaining at 0.5 h, 1 µM [11]: 89%
31 | – | – | 44% | Fc1ccc(C(CC2CNC2)Oc2ccc(Cl)c(Cl)c2)cc1F (configuration not stated) | –
32 | 100% | 100% | 80% | Fc1cc(C(CC2CNC2)Oc2ccccc2)ccc1Cl (configuration not stated) | IC50 [7]: 33.1 nM; IC50 [8]: 10.6 nM; remaining at 0.5 h, 1 µM [11]: 41%; IC50 [10]: 51.3 nM
33 | – | – | 55% | Fc1ccc(OC(CC2CNC2)c2ccc(F)c(F)c2)cc1 (configuration not stated) | –
34 | – | – | 83% | Fc1ccc(C(CC2CNC2)Oc2cccc(OC(F)(F)F)c2)cc1F (configuration not stated) | –
35 | – | – | 83% | Cc1ccc(OC(CC2CNC2)c2ccc(F)c(F)c2)cc1 (configuration not stated) | –
36 | – | – | 63% | Fc1ccc(OC(CC2CNC2)c2ccc(F)c(F)c2)cc1F (configuration not stated) | –
37 | – | – | 19% | Fc1ccc(C(CC2CNC2)Oc2ccccc2OC(F)(F)F)cc1F (configuration not stated) | –
38 | 100% | 100% | 82% | Fc1cc(C(CC2CNC2)Oc2ccccc2Cl)ccc1Cl (configuration not stated) | inhibition at 10 µM [13]: 18%; inhibition at 10 µM [14]: 7.4%; inhibition at 10 µM [15]: 13%; inhibition at 10 µM [16]: 12%; IC50 [7]: 164 nM; IC50 [8]: 30.8 nM; remaining at 0.5 h, 1 µM [11]: 89%; inhibition at 10 µM [12]: 76%; IC50 [10]: 37.5 nM
39 | 100% | 100% | 100% | Cc1cccc(OC(CC2CNC2)c2ccc(Cl)c(F)c2)c1 (configuration not stated) | inhibition at 10 µM [13]: 6.8%; inhibition at 10 µM [14]: 5.5%; inhibition at 10 µM [15]: 12%; inhibition at 10 µM [16]: 12%; IC50 [7]: 80.4 nM; IC50 [8]: 14.7 nM; remaining at 0.5 h, 1 µM [11]: 36%; inhibition at 10 µM [12]: 58%; IC50 [10]: 23 nM
40 | – | – | 93% | Cc1ccccc1OC(CC1CNC1)c1ccc(F)c(F)c1 (configuration not stated) | –
41 | – | – | 100% | Cc1ccccc1OC(CC1CNC1)c1ccccc1 (configuration not stated) | –
42 | – | – | 48% | Fc1ccc(C(CC2CNC2)Oc2ccccc2)cc1F (configuration not stated) | –
43 | 100% | 100% | 94% | Cc1ccccc1OC(CC1CNC1)c1ccc(Cl)c(F)c1 (configuration not stated) | inhibition at 10 µM [13]: 32%; inhibition at 10 µM [14]: 14%; inhibition at 10 µM [15]: 16%; inhibition at 10 µM [16]: 15%; IC50 [7]: 162 nM; IC50 [8]: 68.6 nM; remaining at 0.5 h, 1 µM [11]: 59%; inhibition at 10 µM [12]: 55%; IC50 [10]: 37.7 nM
44 | – | – | 86% | Fc1ccc(C(CC2CNC2)Oc2ccccc2Cl)cc1F (configuration not stated) | –
45 | – | – | 77% | Fc1ccc(C(CC2CNC2)Oc2cccc(Cl)c2)cc1F (configuration not stated) | –
46 | 100% | 100% | 31% | Fc1ccc(OC(CC2CNC2)c2ccc(Cl)c(Cl)c2)cc1F (configuration not stated) | –
47 | – | – | 49% | Fc1ccc(C(CC2CNC2)Oc2ccc(Cl)cc2)cc1F (configuration not stated) | –
48 | – | – | 94% | Fc1cccc(OC(CC2CNC2)c2ccc(F)c(F)c2)c1 (configuration not stated) | –
49 | 100% | 100% | 48% | Fc1cc(C(CC2CNC2)Oc2ccccc2OC(F)(F)F)ccc1Cl (configuration not stated) | –
50 | – | – | 100% | Cc1cccc(OC(CC2CNC2)c2ccc(F)c(F)c2)c1 (configuration not stated) | –
51 | – | – | 61% | Fc1ccc(C(CC2CNC2)Oc2ccccc2F)cc1F (configuration not stated) | –

From ChEMBL document CHEMBL3352322, “Synthesis and biological evaluation of 3-phenethylazetidine derivatives as triple reuptake inhibitors” (Bioorg Med Chem Lett, 2014)
